Measurements as given in ChEMBL document CHEMBL4665834 (J Med Chem, 2020).

Experiments:
[1] = target: Prostaglandin F2-alpha receptor (Homo sapiens, UniProt P43088); experiment: Antagonist activity at human FPR expressed in human Chem-1 cells assessed as inhibition of PGF2alpha-induced calcium flux preincubated for 10 mins followed by PGF2alpha stimulation and measured for 120 secs by fluo-8 AM dye based fluorescence assay; format: functional, cell-based
[2] = Clearance in Wistar rat at 0.3 to 1 mg/kg, iv administered as bolus dose or 15 mins infusion by LC-MS/MS analysis; format: ADME, organism-based; conditions: in vivo, dose 0.3-1 mg/kg; for clearance: Wistar; for CL: 0.25 h
[3] = target: Cytochrome P450 3A4 (Homo sapiens, UniProt P08684); experiment: Inhibition of CYP3A4 in human liver microsomes using midazolam as substrate incubated for 10 mins in presence of NADPH generating system by LC-MS/MS analysis
[4] = Lipophilicity, log D of compound at pH 7.5 by HPLC analysis; conditions: buffer
[5] = species on record: Homo sapiens; experiment: Selectivity ratio of IC50 for displacement of [3H]prostaglandin E2 from full-length recombinant human EP4 receptor expressed in Chem-1 cell membranes to IC50 for displacement of [3H]PGF2alpha from full-length recombinant human FP receptor expressed in HEK293 cell membranes

Prostaglandin F2-alpha receptor, sequence (P43088 whole entry, the tested form may be a part): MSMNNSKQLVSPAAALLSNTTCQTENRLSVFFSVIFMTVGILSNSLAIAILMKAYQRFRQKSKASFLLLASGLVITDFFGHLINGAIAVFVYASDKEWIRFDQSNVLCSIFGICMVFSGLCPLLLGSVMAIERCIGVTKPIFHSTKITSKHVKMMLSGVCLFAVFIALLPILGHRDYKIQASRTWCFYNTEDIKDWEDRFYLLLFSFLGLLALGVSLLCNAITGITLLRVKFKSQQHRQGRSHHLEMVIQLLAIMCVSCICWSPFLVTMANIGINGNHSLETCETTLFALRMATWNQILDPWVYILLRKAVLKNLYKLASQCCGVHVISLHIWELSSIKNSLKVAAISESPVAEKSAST
Cytochrome P450 3A4, sequence (P08684 whole entry): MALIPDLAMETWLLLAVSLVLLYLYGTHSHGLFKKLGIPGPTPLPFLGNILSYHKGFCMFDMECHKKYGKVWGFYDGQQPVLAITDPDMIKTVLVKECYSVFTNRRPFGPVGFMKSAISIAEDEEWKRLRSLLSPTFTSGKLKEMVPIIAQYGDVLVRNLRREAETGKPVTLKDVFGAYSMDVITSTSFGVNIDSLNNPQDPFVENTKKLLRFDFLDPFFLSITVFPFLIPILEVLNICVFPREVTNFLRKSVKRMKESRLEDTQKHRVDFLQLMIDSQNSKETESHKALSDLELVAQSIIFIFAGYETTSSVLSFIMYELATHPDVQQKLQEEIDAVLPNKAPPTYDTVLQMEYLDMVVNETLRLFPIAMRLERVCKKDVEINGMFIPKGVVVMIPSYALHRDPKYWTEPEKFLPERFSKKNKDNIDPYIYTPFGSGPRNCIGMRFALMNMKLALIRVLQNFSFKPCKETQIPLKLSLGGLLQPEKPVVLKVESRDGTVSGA

Row | Compound | clearance [2] | IC50 [3] | logD [4] | other results
1 | COc1ccccc1C(C)CNC(=O)c1c(C)c(-c2ccccc2)nc2ccc(Br)cc12 (single isomer, unassigned; (+)) |  |  |  | IC50 [1]: 0.25 µM
2 | Cc1c(N2CCCCC2)nc2ccc(Br)cc2c1C(=O)NCC(CCC(=O)O)c1ccccc1Cl (stereo in doubt; 48) | 16.7 mL/min/kg |  |  | 
3 | Cc1c(-c2ccccc2)nc2ccc(Br)cc2c1C(=O)NCC(CCC(=O)O)c1ccccc1Cl (single isomer, unassigned; (-)) |  |  |  | CL [2]: 50 mL/min/kg
4 | CCC1CCCN(c2nc3ccc(Br)cc3c(C(=O)NCC(CCC(=O)O)c3ccccc3Cl)c2C)C1 (single isomer, unassigned; 53) |  | 10 µM |  | CL [2]: 21.7 mL/min/kg
5 | Cc1c(-c2ccccc2)nc2ccc(Br)cc2c1CNc1ccc(C(=O)O)cc1F | 11.7 mL/min/kg |  |  | IC50 [1]: 0.025 µM
6 | Cc1c(N2CCCCC2)nc2ccc(Br)cc2c1C(=O)NCC(CCC(=O)O)c1c(F)ccc(F)c1Cl (single isomer, unassigned; (-)) | 38.3 mL/min/kg |  |  | 
7 | Cc1c(-c2ccccc2)nc2ccc(Br)cc2c1C(=O)NC(C)Cc1ccccn1 (racemic) |  |  |  | IC50 [1]: 0.5 µM
8 | Cc1c(-c2ccccc2)nc2ccc(Cl)cc2c1C(=O)Nc1ccc(C(=O)O)cc1F |  | > 20 µM | 1.9 | Ratio IC50 [5]: 17
9 | Cc1c(-c2ccccc2)nc2ccc(Br)cc2c1C(=O)N(C)CCc1ccccn1 |  |  |  | IC50 [1]: 15 µM
10 | CCC1CCCN(c2nc3ccc(Br)cc3c(C(=O)NCC(CCC(=O)O)c3ccccc3Cl)c2C)C1 (single isomer, unassigned; 54) |  | 2 µM |  | 
11 | CCC1CCCN(c2nc3ccc(Br)cc3c(C(=O)NCC(CCC(=O)O)c3ccccc3Cl)c2C)C1 (single isomer, unassigned; 52) |  | 5 µM | 3.3 | CL [2]: 48.3 mL/min/kg; IC50 [1]: 0.00053 µM
12 | Cc1c(N2CCCCCC2)nc2ccc(Br)cc2c1C(=O)NCC(CCC(=O)O)c1ccccc1Cl (single isomer, unassigned; (+)) | 21.7 mL/min/kg |  |  | 
13 | Cc1c(N2CCCCC2)nc2ccc(Br)cc2c1C(=O)NCC(CCC(=O)O)c1ccccc1Cl (single isomer, unassigned; (-)) |  |  |  | CL [2]: 25 mL/min/kg
14 | CCC1CCCN(c2nc3ccc(Br)cc3c(C(=O)NCC(CCC(=O)O)c3ccccc3Cl)c2C)C1 (single isomer, unassigned; 55) |  | 5 µM |  | IC50 [1]: 0.0076 µM
15 | O=C(O)c1ccc(NC(=O)c2c(C3CC3)c(-c3ccccc3)nc3ccc(Br)cc23)c(F)c1 |  |  | 2.1 | Ratio IC50 [5]: 8.8
16 | Cc1c(-c2ccccc2)cc2ccc(Br)cc2c1C(=O)Nc1ccc(C(=O)O)cc1F | 10 mL/min/kg |  |  | IC50 [1]: 0.013 µM

More lines, main results first:

Row | clearance [2] | IC50 [3] | logD [4] | Compound | other results
17 |  | > 20 µM | 2.2 | Cc1c(-c2ccccc2)nc2ccc(Br)cc2c1C(=O)NCC(CCC(=O)O)c1c(F)ccc(F)c1Cl (single isomer, unassigned; (+)) | 
18 |  | 20 µM | 2.3 | Cc1c(-c2ccccc2)nc2ccc(Br)cc2c1C(=O)NCC(CCCC(=O)O)c1ccccc1Cl (single isomer, unassigned; (+)) | 
19 | 46.7 mL/min/kg | > 20 µM | 2 | COc1ccccc1C(CNC(=O)c1c(C)c(-c2ccccc2)nc2ccc(Br)cc12)CC(=O)O (single isomer, unassigned; (+)) | 
20 |  | 13 µM |  | Cc1c(-c2ccccc2)nc2ccc(Br)cc2c1C(=O)NCC(CC(=O)O)c1ccccc1Cl (stereo in doubt; 34) | CL [2]: 18.3 mL/min/kg
21 | 43.3 mL/min/kg | 5 µM |  | Cc1c(-c2ccccc2)nc2ccc(Br)cc2c1C(=O)NCC(CCC(=O)O)c1c(F)ccc(F)c1Cl (single isomer, unassigned; (-)) | 
22 |  | > 20 µM | 2.6 | Cc1c(N2CC(F)(F)C2)nc2ccc(Br)cc2c1C(=O)NCC(CCC(=O)O)c1ccccc1Cl (racemic) | Ratio IC50 [5]: > 220
23 | 20 mL/min/kg | > 20 µM | 2.3 | Cc1c(N2CCCC2)nc2ccc(Br)cc2c1C(=O)NC[C@@H](CCC(=O)O)c1ccccc1Cl | 
24 |  | > 20 µM | 2 | COc1cccc(C(CNC(=O)c2c(C)c(-c3ccccc3)nc3ccc(Br)cc23)CC(=O)O)c1 (racemic) | 
